Reference: patent US10059694B2, “2-aminopyrimidine compound and pharmaceutical composition and use thereof” (Shanghai Institute of Materia Medica, Chinese Academy of …, priority 2014, dated 2018)
Where two headings read alike, the source gives them in different places.

Legend:
[1] = molecular target: T1, IGF-1R (Homo sapiens, UniProt P08069); experiment: kinase inhibitory activity test (ELISA), IGF-1R; type: biochemical; conditions: ATP 5 μM, 1 hour at 37° C.
T1 construct: purchased Millipore
Experimental: (§1) The enzyme substrate poly (glutamic acid, tyrosine)4:1 (Sigma) was diluted with potassium-free PBS (10 mM sodium phosphate buffer, 150 mM NaCl, pH 7.2-7.4) to 20 μg/mL, plate coated with 125 μL/well, reacted for 12-16 hours at 37° C. After the liquid in the wells was discarded, the plates were washed three times with 200 μL/well of T-PBS (PBS containing 0.1% Tween-20), and each time for 5 minutes, and then dried for 1-2 hours in an oven at 37° C. 50 μL of ATP solution diluted with reaction buffer (50 mM HEPES pH 7.4, 50 mM MgCl2, 5 mM MnCl2, 0.2 mM Na3VO4, 1 mM DTT) was added into each well and the final concentration was 5 μM. The compounds were diluted with 1% DMSO to suitable concentrations and were added at 10 μL/well. Then different types of tyrosine kinase proteins (including EGFR^wt, EGFR^T790M/L858R and IGF-1R, purchased from Millipore) diluted with 40 μL of reaction buffer were added. The above reaction system was reacted for 1 hour at 37° C. shaking table (100 rpm). Control wells with no enzyme and control wells with DMSO solvent were set in each experiment. After the reaction was completed, the plates were washed three times with T-PBS. The anti-phosphotyrosine primary antibody PY99 (Santa Cruz) was added at 100 μL/well and the antibody was diluted with T-PBS containing BSA 5 mg/mL by 1:1000. The mixture was reacted for 0.5 h at 37° C. shaking table, the plates were washed three times with T-PBS. The secondary antibody which was horseradish peroxidase-labeled goat anti-mouse IgG was added at 100 μL/well (the antibody was diluted with T-PBS containing BSA 5 mg/mL by 1:2000). The mixture was reacted for 0.5 h at 37° C. shaking table, the plates were washed three times with T-PBS. 2 l/mL of OPD coloring solution was added at 100 μL/well (diluted with 0.1 M citric acid-sodium citrate buffer (pH=5.4) containing 0.03% H2O2) and dark reacted for 1 to 10 minutes at 25° C. 2 M H2SO4 was added at 50 μL/well to terminate the reaction. Reading was carried out with an adjustable wavelength microplate enzyme-labeled instrument SPECTRA MAX 190 at 490 nm wavelength.
(§2) The IC50 value was calculated by the four-parameter fitting of the suppression curve.

[2] = molecular target: T2, EGFR^wt (Homo sapiens, UniProt P00533); experiment: kinase inhibitory activity test (ELISA), EGFR^WT; type: biochemical; conditions: ATP 5 μM, 1 hour at 37° C.
T2 construct: purchased Millipore
T2 sequence (P00533 25-1210): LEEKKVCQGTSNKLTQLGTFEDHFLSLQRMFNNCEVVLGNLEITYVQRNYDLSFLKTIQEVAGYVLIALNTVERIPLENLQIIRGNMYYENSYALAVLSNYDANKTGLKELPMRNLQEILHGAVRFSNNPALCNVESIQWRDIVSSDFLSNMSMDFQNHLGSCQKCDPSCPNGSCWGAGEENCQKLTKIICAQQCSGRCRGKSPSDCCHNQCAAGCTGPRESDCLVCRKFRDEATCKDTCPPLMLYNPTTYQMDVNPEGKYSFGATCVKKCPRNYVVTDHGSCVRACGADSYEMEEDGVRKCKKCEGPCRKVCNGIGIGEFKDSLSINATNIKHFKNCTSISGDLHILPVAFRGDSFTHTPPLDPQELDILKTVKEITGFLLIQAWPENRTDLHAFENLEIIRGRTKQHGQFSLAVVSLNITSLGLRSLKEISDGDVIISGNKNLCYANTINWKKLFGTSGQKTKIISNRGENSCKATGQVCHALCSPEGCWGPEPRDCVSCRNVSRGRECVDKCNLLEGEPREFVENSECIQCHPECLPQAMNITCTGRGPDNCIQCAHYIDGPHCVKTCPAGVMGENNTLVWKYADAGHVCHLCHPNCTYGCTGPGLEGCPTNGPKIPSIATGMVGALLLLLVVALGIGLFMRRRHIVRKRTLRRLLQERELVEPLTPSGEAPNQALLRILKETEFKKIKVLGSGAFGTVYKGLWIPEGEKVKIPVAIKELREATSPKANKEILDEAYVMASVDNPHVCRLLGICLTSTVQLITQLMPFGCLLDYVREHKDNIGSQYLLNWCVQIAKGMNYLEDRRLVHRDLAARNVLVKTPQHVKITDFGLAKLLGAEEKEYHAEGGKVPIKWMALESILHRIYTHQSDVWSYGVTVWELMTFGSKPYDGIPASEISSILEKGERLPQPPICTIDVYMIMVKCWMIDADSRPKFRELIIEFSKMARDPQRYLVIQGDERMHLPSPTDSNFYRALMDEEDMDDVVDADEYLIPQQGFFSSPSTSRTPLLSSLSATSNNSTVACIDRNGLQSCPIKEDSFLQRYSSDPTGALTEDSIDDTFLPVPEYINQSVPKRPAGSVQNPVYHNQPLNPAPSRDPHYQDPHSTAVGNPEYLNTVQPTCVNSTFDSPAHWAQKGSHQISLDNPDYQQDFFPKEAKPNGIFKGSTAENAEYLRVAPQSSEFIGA
Experimental: as §1, with “Then different types of tyrosine kinase proteins (including EGFR^wt, EGFR^T790M/L858R and IGF-1R, purchased from Millipore) diluted with 40 μL of reaction buffer were added.” left out
as §2

[3] = molecular target: T3, EGFR^T790M/L858R (Homo sapiens, UniProt P00533, L858R/T790M); experiment: kinase inhibitory activity test (ELISA), EGFR^T790M/L858R; type: biochemical; conditions: for IC50: ELISA, ATP 5 μM, 1 hour at 37° C.; for kinase inhibitory activity (in words): summary of Table 1
T3 construct: purchased Millipore
T3 sequence (P00533 25-1210 T790M/L858R): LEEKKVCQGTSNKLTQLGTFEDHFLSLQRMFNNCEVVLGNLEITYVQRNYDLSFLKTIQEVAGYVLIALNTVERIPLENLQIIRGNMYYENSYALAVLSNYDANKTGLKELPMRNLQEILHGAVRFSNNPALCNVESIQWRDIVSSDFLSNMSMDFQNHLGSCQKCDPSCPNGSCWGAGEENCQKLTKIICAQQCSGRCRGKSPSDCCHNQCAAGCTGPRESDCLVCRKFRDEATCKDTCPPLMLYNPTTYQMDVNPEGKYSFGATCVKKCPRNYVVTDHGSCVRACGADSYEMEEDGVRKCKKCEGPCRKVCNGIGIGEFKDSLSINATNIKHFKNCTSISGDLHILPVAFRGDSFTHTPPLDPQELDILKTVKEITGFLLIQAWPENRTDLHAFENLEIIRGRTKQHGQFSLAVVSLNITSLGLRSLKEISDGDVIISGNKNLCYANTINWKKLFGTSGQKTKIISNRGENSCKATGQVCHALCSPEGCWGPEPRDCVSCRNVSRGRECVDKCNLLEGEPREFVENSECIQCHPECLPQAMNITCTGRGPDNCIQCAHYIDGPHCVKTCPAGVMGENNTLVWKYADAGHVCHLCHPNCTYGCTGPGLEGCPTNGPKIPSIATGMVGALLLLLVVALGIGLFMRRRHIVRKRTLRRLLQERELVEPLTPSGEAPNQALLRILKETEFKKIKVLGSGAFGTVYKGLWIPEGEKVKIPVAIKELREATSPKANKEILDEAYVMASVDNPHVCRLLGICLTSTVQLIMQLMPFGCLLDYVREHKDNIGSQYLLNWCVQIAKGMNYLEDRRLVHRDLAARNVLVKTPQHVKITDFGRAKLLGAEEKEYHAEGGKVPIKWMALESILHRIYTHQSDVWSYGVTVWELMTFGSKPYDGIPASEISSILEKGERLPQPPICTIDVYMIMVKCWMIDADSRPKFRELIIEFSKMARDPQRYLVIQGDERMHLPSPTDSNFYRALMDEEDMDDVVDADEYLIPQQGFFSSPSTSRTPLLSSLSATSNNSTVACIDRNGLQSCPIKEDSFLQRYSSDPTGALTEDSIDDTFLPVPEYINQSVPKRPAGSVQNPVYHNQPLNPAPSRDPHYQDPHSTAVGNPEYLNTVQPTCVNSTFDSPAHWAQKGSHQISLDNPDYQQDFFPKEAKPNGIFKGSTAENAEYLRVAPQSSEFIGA
Experimental: as §1, with “Then different types of tyrosine kinase proteins (including EGFR^wt, EGFR^T790M/L858R and IGF-1R, purchased from Millipore) diluted with 40 μL of reaction buffer were added.” left out
as §2

[4] = test system: human epidermal carcinoma A431 cell line; experiment: SRB proliferation assay, A431 cells; type: cell-based; conditions: read-out: IC50 A431
Experimental: (§3) Cell lines: human epidermal carcinoma A431 cell line and human non-small cell lung cancer NCI-H1975 cell line was purchased from the American Standard Biology Collection Center (ATCC).
(§4) Methods: sulforhodamine B (SRB) method, which was as follows: certain number of different tumor cells in logarithmic growth phase were inoculated on 96-well culture plates. After cultured for 24 h to cell adherence, different concentrations of the test compounds of the invention were added. Each concentration was provided with three wells, and a corresponding concentration of DMSO solvent control and a cell-free zeroing well were set. After the cells were treated with the medicine for 72 h, the culture medium was discarded and 100 μL of 10% pre-cooled trichloroacetic acid solution was added to fix the cells. After placed for 1 h at 4° C., it was washed for 5 times with distilled water and dried naturally. Then 100 μL SRB (4 mg/mL) (Sigma) solution was added and stained for 15 min at room temperature. The staining solution was discarded and washed for 5 times with 1% glacial acetic acid and dried. Finally, 150 μL of 10 mM Tris solution (pH 10.5) was added and the OD value was measured at 515 nm with adjustable wavelength microplate enzyme-labeled instrument (VERSAmax™, Molecular Device Corporation, Sunnyvale, Calif., USA).

[5] = test system: human non-small cell lung cancer NCI-H1975 cell line; experiment: SRB proliferation assay, NCI-H1975 cells; type: cell-based; conditions: read-out: IC50 NCI-H1975
Experimental: as §3
as §4, with “USA). […] Based on the inhibitory effect of the 2-aminopyrimidine compounds on the growth of these cells, the half maximal inhibitory concentration (IC50) values were calculated, as shown in Table 2.” for “USA).”

T1 sequence (P08069 31-1367): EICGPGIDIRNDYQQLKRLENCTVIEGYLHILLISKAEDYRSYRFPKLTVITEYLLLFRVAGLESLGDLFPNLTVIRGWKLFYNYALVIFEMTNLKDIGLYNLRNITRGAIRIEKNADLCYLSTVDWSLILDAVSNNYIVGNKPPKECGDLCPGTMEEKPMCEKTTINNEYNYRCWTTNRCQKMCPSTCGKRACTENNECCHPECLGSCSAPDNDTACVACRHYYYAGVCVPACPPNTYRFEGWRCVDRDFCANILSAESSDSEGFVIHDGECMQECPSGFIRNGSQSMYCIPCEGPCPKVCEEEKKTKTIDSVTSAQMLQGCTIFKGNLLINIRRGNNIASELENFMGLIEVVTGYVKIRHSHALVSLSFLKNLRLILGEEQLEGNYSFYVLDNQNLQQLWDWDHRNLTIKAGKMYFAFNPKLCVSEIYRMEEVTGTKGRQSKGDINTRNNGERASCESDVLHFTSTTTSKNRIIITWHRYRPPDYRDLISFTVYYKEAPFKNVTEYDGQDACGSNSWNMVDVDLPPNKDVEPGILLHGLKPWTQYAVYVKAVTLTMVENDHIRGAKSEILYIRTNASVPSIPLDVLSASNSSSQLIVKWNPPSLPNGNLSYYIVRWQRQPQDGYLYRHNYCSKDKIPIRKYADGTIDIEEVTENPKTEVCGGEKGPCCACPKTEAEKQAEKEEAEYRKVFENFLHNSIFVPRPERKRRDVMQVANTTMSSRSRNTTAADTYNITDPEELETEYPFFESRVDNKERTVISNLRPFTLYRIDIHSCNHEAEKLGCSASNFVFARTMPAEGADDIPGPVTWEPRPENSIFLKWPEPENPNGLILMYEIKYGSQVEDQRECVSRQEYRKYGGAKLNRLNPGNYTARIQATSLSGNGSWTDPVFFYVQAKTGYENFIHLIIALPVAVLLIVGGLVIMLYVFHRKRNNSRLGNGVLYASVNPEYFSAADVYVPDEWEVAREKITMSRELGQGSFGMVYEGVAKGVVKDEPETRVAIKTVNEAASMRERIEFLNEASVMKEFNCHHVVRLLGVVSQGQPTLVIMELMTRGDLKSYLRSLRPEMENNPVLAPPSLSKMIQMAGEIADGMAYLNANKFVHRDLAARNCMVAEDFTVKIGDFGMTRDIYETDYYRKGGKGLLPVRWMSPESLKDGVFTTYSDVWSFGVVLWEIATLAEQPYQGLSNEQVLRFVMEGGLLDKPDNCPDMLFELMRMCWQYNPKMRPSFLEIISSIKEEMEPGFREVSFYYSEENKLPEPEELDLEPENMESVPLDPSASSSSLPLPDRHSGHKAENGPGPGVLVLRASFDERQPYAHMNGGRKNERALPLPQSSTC

SMILES	IC50 [1] [nM]	IC50 [2] [nM]	IC50 [3] [nM]	kinase inhibitory activity (in words) [3]	IC50 ([4]; A-431, SRB, 72 h) [nM]	IC50 ([5]; NCI-H1975, SRB, 72 h) [nM]	IC50 ([4]; A-431, 72 h) [nM]	IC50 ([5]; NCI-H1975, 72 h) [nM]
C=CC(=O)Nc1cc(Nc2nccc(-c3cn(C)c4ccccc34)n2)c(OC)cc1N(C)CCN(C)C [AZD9291, reference compound]	> 1000							
COc1ccc(NC(=O)/C=C/CN(C)C)cc1Nc1ncc(Cl)c(Nc2ccc3ccccc3c2)n1 [CCB118563, (E)-N-((3-((5-chloro-4-((naphthalen-2-yl)amino))pyrimidin-2-yl)amino)-4-methoxyphenyl)-4-(dimethylamino)-2-butenamide]	14.7	260	18.2				1130	306
COc1ccc(NC(=O)/C=C/CN2CCCCC2)cc1Nc1ncc(Cl)c(Nc2ccc3ccccc3c2)n1 [CCB120024, (E)-N-((3-((5-chloro-4-((naphthalen-2-yl)amino))pyrimidin-2-yl)amino)-4-methoxyphenyl)-4-(piperidin-1-yl)-2-butenamide]	35.4	318	1.9	potent	6930	319		
COc1ccc(NC(=O)/C=C/CN2CCOCC2)cc1Nc1ncc(Cl)c(Nc2ccc3ccccc3c2)n1 [CCB120025, (E)-N-((3-((5-chloro-4-((naphthalen-2-yl)amino))pyrimidin-2-yl)amino)-4-methoxyphenyl)-4-(morpholin-1-yl)-2-butenamide]	132	567	11.9			895		
C=CC(=O)Nc1ccc(OC)c(Nc2ncc(Cl)c(Nc3ccc4ccccc4c3)n2)c1 [CCB120027, N-((3-((5-chloro-4-((naphthalen-2-yl)amino))pyrimidin-2-yl)amino)-4-methoxyphenyl)acrylamide]	263	172	2.2	potent	> 10000	403		
COc1ccc(NC(=O)/C=C/CN2CCN(C(C)=O)CC2)cc1Nc1ncc(Cl)c(Nc2ccc3ccccc3c2)n1 [CCB120029, (E)-N-((3-((5-chloro-4-((naphthalen-2-yl)amino))pyrimidin-2-yl)amino)-4-methoxyphenyl)-4-(4-acetylpiperazin-1-yl)-2-butenamide]	99.4	695	19.1			1050		
C=CC(=O)Nc1cc(CN(C)CCN(C)C)cc(Nc2ncc(Cl)c(Nc3ccc4ccccc4c3)n2)c1 [CCB120069, N-((3-((5-chloro-4-((naphthalen-2-yl)amino))pyrimidin-2-yl)amino)-5-((N-methyl-N-dimethylaminoethyl)methylamine)phenyl)acrylamide]	9	132	3.9	potent	535	147		
C=CC(=O)Nc1cc(CN(C)C)cc(Nc2ncc(Cl)c(Nc3ccc4ccccc4c3)n2)c1 [CCB120081, N-((3-((5-chloro-4-((naphthalen-2-yl)amino))pyrimidin-2-yl)amino)-5-(dimethylaminomethyl)phenyl)acrylamide]	85.8	170	5.1		37	16		

The next lines start with results.

IC50 [1] [nM]	IC50 [2] [nM]	IC50 [3] [nM]	kinase inhibitory activity (in words) [3]	IC50 ([4]; A-431, SRB, 72 h) [nM]	IC50 ([5]; NCI-H1975, SRB, 72 h) [nM]	SMILES	IC50 ([4]; A-431, 72 h) [nM]	IC50 ([5]; NCI-H1975, 72 h) [nM]
73.3	102	3.1		1020	131	C=CC(=O)Nc1cc(CN2CCN(C)CC2)cc(Nc2ncc(Cl)c(Nc3ccc4ccccc4c3)n2)c1 [CCB120103, N-((3-((5-chloro-4-((naphthalene-2-yl)amino))pyrimidine-2-yl)amino)-5-((4-methylpiperazine-1-yl)methyl)phenyl)acrylamide]		
77.3	137	1.2		576	151	C=CC(=O)Nc1cc(CN2CCCN(C)CC2)cc(Nc2ncc(Cl)c(Nc3ccc4ccccc4c3)n2)c1 [CCB120105, N-((3-((5-chloro-4-((naphthalen-2-yl)amino))pyrimidin-2-yl)amino)-5-((4-methylhomopiperazin-1-yl)methyl)phenyl)acrylamide]		
138	> 1000	4.1		2000	311	C=CC(=O)Nc1cc(CN2CCOCC2)cc(Nc2ncc(Cl)c(Nc3ccc4ccccc4c3)n2)c1 [CCB120106]		
7.8	3.1	2.2				C=CC(=O)Nc1cc(Nc2ncc(Cl)c(Nc3ccc4ccccc4c3)n2)c(OC)cc1N(C)CCNC [CCB4580030, N-((5-((5-chloro-4-(naphthalene-2-ylamino)pyrimidine-2-yl)amino)-4-methoxy-2-(methyl(2-methylamino)ethyl)amino)phenyl)acrylamide]		
1320				972	215	C=CC(=O)Nc1cccc(Nc2nc(Nc3ccc(N4CCN(C(C)=O)CC4)cc3OC)ncc2C(F)(F)F)c1 [CO1686, reference compound]		
